This note sets out measurements from patent US20160263150A1, “TUNING BIOLOGICAL SYSTEM PROPERTIES FOR OPTIMIZED TREATMENT EFFICACY” (Baylor College of Medicine, priority 2015, published 2016).

Holding throughout (assay type): physicochemical
Data set [1] in a line: RF (13.56 MHz) heating rate of kosmotropic materials dissolved in PBS, 100 W. As to conditions: 500 mg/m in PBS. The procedure:
Sample temperature was measured using an infrared camera. The heating rates were calculated by a least-squares linear regression of the resultant temperature-time plot (FIG. 2B). Samples were heated from 23° C. to either 27° C. or for a duration of 60 seconds, whichever occurred first. Over this selected small temperature range, the variation of the temperature-dependence of dielectric properties was negligible.
The complex relative permittivity (∈′r and e″r) of all samples was measured over the frequency range of 10 MHz to 3 GHz (FIGS. 4A-B). From these measurements, the conductivity was obtained using the relationship σ=ω∈D∈″r. […]
Each of the materials listed in FIG. 5A were dissolved at 100, 250, and 500 mg/mL in phosphate buffered saline (PBS), a biologically iso-osmolar solution with similar conductivity (1.15 S/m) to blood and body tissues. […] RF heating rates and conductivity were measured according to the procedure described in Examples 1.1 and 1.2. […]
A variable power RF (13.56 MHz) Generator System (ThermMed, LLC, Erie, Pa.) was used to heat aqueous solutions. […] Sample temperatures were recorded using an infrared camera (FLIR SC 6000, FLIR Systems, Inc., Boston, Mass.) approximately every 0.17 s. […] Heating rates were calculated by fitting a linear regression to the temperature versus time plot of each sample for the duration of RF exposure.

Data set [2] is described as follows: RF heating rate and conductivity of bovine blood mixed with additives. As to conditions: for effect of addition on blood conductivity and heating rate: 1-20% by weight in bovine blood; for additive content from which a significant increase in blood heating rate (p<0.005) was observed: by weight in bovine blood with 2-3% EDTA. The procedure: In a similar study, various additives were added to bovine blood containing 2-3% ethylenediamine tetraacetic acid (EDTA) to prevent coagulation. The additives tested were propylene glycol, glycerol, pure water and normal saline at concentrations of 1-20% by weight.
A variable power RF (13.56 MHz) Generator System (ThermMed, LLC, Erie, Pa.) was used to heat aqueous solutions. A high-voltage RF field is generated in the 8 cm air gap between the transmitting and receiving heads of the RF field generator. For aqueous experiments, samples were placed in a 1.3 mL quartz cuvette on a non-conducting Teflon holder mounted on an adjustable rotary stage at ambient temperature and open to air. The cuvette was placed 8 mm from the transmitting head of the RF field generator and exposed to the high-voltage RF field at 100 or 900 W generator power. Sample temperatures were recorded using an infrared camera (FLIR SC 6000, FLIR Systems, Inc., Boston, Mass.) approximately every 0.17 s. At both 100 W and 900 W, samples were heated from ambient temperature (i.e., ˜23° C.) to 27° C. or for a duration of 60 seconds, whichever occurred first. Heating rates were calculated by fitting a linear regression to the temperature versus time plot of each sample for the duration of RF exposure.
Previous experiments involved conductivity modulation of PBS, a biologically relevant aqueous solution commonly used in laboratory settings. […] Blood samples contained 2-3% ethylenediamine tetraacetic acid (EDTA) to prevent coagulation. A number of additives, including water, normal saline, propylene glycol and glycerol were mixed with blood at increasing weight percent content (1-20%).

Data set [3] is described as follows: RF heating of kosmotropic materials in PBS (Example 2). The following applies: 342 mg/mL in PBS. The method, then: Kosmotropic material solutions in phosphate buffered saline (PBS) were prepared using concentrated PBS to maintain equal ion concentration in all solutions. Kosmotropic materials (sucrose, maltose, trehalose, glycerol, propylene glycol, ethylene glycol) and all salts were obtained from Sigma-Aldrich in high purity (>98%) and used as received.
A variable power Kanzius External RF system (13.56 MHz) Generator System (ThermMed, LLC, Erie, Pa.) was used to heat aqueous solutions and tissue samples. A high-voltage RF field is generated in the 8 cm air gap between the transmitting and receiving heads of the RF-field generator. For aqueous experiments, samples were placed in a 1.3 mL quartz cuvette on a nonconducting Teflon holder mounted on an adjustable rotary stage at ambient temperature and open to air. […] Sample temperatures were recorded using an infrared camera (FLIR SC 6000, FLIR Systems, Inc., Boston, Mass.) approximately every 0.17 seconds. […] Heating rates were calculated by fitting a linear regression to the temperature versus time plot of each sample for the duration of RF exposure or only for the first five seconds of RF exposure. The latter methodology allows for the assumption that the dielectric properties remain approximately constant in the time frame analyzed, as discussed herein. […]

The nature of data set [4]: RF-induced heating of m-/s-SWNT suspensions in NaCl solutions. The following applies: with 2% w/v Pluronic F108.
Protocol: Once characterized, these m-/s-SWNT samples were then exposed to a high-intensity (˜90 kV/m) 13.56 MHz RF electric field. […] Approximately 1.3 mL of each sample was placed in a cylindrical quartz cuvette (˜1 cm height by ˜1 cm diameter) and exposed to the RF field for 120 seconds or until the temperature reached 70° C. to prevent electrical arcing. Thermal imaging data was captured using an FLIR SC 600 infrared camera. Videos were also recorded simultaneously using a Nikon SLR camera. Once the samples had been exposed, the SWNTs were removed from solution using a 100 KDa filter to collect the supernatant, which was then re-exposed to the RF field. The differential heating rates determined heat production from the SWNTs themselves and not the Pluronic F108/NaCl background.
Using the highest SWNT concentration of 100 mg/L, Applicants then sought to investigate SWNT heating rates versus host medium conductivity, which was modulated using NaCl solutions. Aqueous NaCl solutions (all with 2% w/v Pluronic F108) across the molarity range 10^4 to 10^3 mM were combined with m-/s-SWNTs at a concentration of 100 mg/L. These were then exposed to the RF field and filtered to remove the supernatant, which was then re-exposed.
Data set [5] in a line: RF heating of neat ethanol and oils, 900 W.
Protocol: A variable power Kanzius External RF system (13.56 MHz) Generator System (ThermMed, LLC, Erie, Pa.) was used to heat aqueous solutions and tissue samples. A high-voltage RF field is generated in the 8 cm air gap between the transmitting and receiving heads of the RF-field generator. For aqueous experiments, samples were placed in a 1.3 mL quartz cuvette on a nonconducting Teflon holder mounted on an adjustable rotary stage at ambient temperature and open to air. The cuvette was placed 8 mm from the transmitting head of the RF-field generator and exposed to the high-voltage RF field at 900 W generator power. Sample temperatures were recorded using an infrared camera (FLIR SC 6000, FLIR Systems, Inc., Boston, Mass.) approximately every 0.17 seconds. Samples were heated from ambient temperature (i.e., ˜23° C. to ˜70° C. or for 120 seconds), whichever occurred first. Heating rates were calculated by fitting a linear regression to the temperature versus time plot of each sample for the duration of RF exposure or only for the first five seconds of RF exposure. The latter methodology allows for the assumption that the dielectric properties remain approximately constant in the time frame analyzed, as discussed herein.

In the case of `CC(O)CO` (stereo not drawn) [Propylene glycol, propylene glycol], the “increase of the heating rate of PBS” value in data set [1] worked out at 490%. Moreover, in data set [2], the “effect of addition on blood conductivity and heating rate” value is “decrease in blood conductivity and increase in heating rate”; the “additive content from which a significant increase in blood heating rate (p<0.005) was observed” value is 5%. On to `OC[C@H]1O[C@H](O[C@H]2[C@H](O)[C@@H](O)C(O)O[C@@H]2CO)[C@H](O)[C@@H](O)[C@@H]1O` (mixture of isomers) [Maltose, maltose], for which the “PBS heating rate with kosmotropic material” value in data set [3] is 0.32±0.01 ° C./s. In the case of `OCC(O)CO` [glycerol], in data set [2], the “effect of addition on blood conductivity and heating rate” value was “decrease in blood conductivity and increase in heating rate”; the “additive content from which a significant increase in blood heating rate (p<0.005) was observed” value worked out at 10%. Take `OC[C@H]1O[C@H](O[C@H]2O[C@H](CO)[C@@H](O)[C@H](O)[C@H]2O)[C@H](O)[C@@H](O)[C@@H]1O` [trehalose]: in data set [3], the “PBS heating rate with kosmotropic material” value was 0.33±0.01 ° C./s. Regarding `[Cl-].[Na+]` [NaCl], the “NaCl concentration at maximum heating” value in data set [4] was determined as 5 mM. Regarding `CCO` [ethanol], in data set [5], the “RF heating rate of neat material” value was determined as 0.09 ° C./s.
